This note sets out measurements from patent publication US10377770B2 (Novartis AG, priority 2015, dated 2019).

As a reminder, the IC50 is the point on the concentration scale where inhibition reaches its midpoint. A low value points to greater potency.

This assay deals with C-Raf FL (full length CRAF with Y340E and Y341E activating mutations, co-expressed with h14-3-3 zeta) (Homo sapiens (Human), UniProt P04049, Y340E/Y341E). Put plainly: In vitro Raf activity determination, AlphaScreen p-MEK readout, c-Raf (C-Raf FL). To be noted: c-Raf approximately 4 nM, ATP 1 μM, pre-incubation 60 minutes, reaction 1 hour. The assay is classed as biochemical. The method in brief:
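Phosphorylation of kinase-dead biotinylated MEK1 (~10 nM) by C-Raf FL (~4 nM) read by AlphaScreen luminescence with anti-phospho-MEK1/2 after EDTA stop. ATP was 1 μM, with a 1 h reaction at room temperature. Compounds were pre-incubated with enzyme and substrate for 60 min in Tris/MgCl2 buffer, pH 7.5.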

Sequence of C-Raf FL (full length CRAF with Y340E and Y341E activating mutations, co-expressed with h14-3-3 zeta) (P04049 whole entry Y340E/Y341E): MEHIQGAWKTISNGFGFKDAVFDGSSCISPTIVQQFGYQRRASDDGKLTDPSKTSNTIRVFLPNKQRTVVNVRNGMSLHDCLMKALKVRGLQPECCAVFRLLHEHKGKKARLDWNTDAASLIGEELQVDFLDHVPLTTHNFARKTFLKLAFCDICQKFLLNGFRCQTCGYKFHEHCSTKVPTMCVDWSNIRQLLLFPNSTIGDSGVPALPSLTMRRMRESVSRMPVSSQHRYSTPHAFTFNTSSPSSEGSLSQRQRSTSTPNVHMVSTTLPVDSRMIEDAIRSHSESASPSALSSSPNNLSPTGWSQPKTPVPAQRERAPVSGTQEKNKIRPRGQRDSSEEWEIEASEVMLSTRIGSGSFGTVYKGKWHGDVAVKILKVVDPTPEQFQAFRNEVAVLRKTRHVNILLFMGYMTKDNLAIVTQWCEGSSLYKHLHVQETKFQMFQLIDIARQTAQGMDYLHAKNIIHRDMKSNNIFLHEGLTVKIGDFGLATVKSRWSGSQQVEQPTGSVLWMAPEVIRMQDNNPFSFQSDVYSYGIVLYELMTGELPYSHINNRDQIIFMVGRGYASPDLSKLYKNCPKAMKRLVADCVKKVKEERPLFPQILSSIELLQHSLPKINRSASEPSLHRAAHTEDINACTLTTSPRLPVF
Sequence of C-Raf FL (full length CRAF with Y340E and Y341E activating mutations, co-expressed with h14-3-3 zeta) (P63104 whole entry partner): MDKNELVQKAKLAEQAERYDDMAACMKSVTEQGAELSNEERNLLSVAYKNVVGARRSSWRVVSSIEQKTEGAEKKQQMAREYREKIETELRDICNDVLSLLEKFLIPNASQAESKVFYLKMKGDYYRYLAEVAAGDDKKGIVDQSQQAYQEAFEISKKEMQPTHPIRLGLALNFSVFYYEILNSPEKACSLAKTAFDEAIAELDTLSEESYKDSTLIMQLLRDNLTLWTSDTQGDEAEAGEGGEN

The compound `Cc1ccc(NC(=O)c2ccnc(C(C)(F)F)c2)cc1-c1ccc2c(c1)N1CCOC[C@H]1[C@@](F)(CO)C2` [Example 371, 2-(1,1-difluoroethyl)-N-(3-((4aS,5R)-5-fluoro-5-(hydroxymethyl)-1,2,4,4a,5,6-hexahydro-[1,4]oxazino[4,3-a]quinolin-9-yl)-4-methylphenyl)isonicotinamide] showed an IC50 of 0.2 nM.
As to `Cc1ccc(NC(=O)c2ccnc(C(C)(F)F)c2)cc1-c1ccc2c(c1)N1CCOC[C@@H]1[C@](F)(CO)C2` [Example 372, 2-(1,1-difluoroethyl)-N-(3-((4aR,5S)-5-fluoro-5-(hydroxymethyl)-1,2,4,4a,5,6-hexahydro-[1,4]oxazino[4,3-a]quinolin-9-yl)-4-methylphenyl)isonicotinamide], the IC50 worked out at 0.3 nM.
The same measure for `Cc1ccc(NC(=O)c2ccnc(C(C)(F)F)c2)cc1-c1ccc2c(c1)N1CCOC[C@H]1[C@@](C)(C#N)C2` [Example 373, N-(3-((4aR,5S)-5-cyano-5-methyl-1,2,4,4a,5,6-hexahydro-[1,4]oxazino[4,3-a]quinolin-9-yl)-4-methylphenyl)-2-(1,1-difluoroethyl)isonicotinamide]: 0.4 nM; for `Cc1ccc(NC(=O)c2ccnc(C(C)(F)F)c2)cc1-c1ccc2c(c1)N1CCOC[C@@H]1[C@](C)(C#N)C2` [Example 374, N-(3-((4aS,5R)-5-cyano-5-methyl-1,2,4,4a,5,6-hexahydro-[1,4]oxazino[4,3-a]quinolin-9-yl)-4-methylphenyl)-2-(1,1-difluoroethyl)isonicotinamide]: 0.2 nM; for `Cc1ncc(NC(=O)c2ccnc(C(C)(F)F)c2)cc1-c1ccc2c(c1)N1CCOC[C@H]1[C@@](C)(C#N)C2` [Example 375, N-(5-((4aR,5S)-5-cyano-5-methyl-1,2,4,4a,5,6-hexahydro-[1,4]oxazino[4,3-a]quinolin-9-yl)-6-methylpyridin-3-yl)-2-(1,1-difluoroethyl)isonicotinamide]: 0.4 nM.
Then `Cc1ncc(NC(=O)c2ccnc(C(C)(F)F)c2)cc1-c1ccc2c(c1)N1CCOC[C@@H]1[C@](C)(C#N)C2` [Example 376, N-(5-((4aS,5R)-5-cyano-5-methyl-1,2,4,4a,5,6-hexahydro-[1,4]oxazino[4,3-a]quinolin-9-yl)-6-methylpyridin-3-yl)-2-(1,1-difluoroethyl)isonicotinamide], with 0.5 nM.
On to `Cc1ccc(NC(=O)c2ccnc(C(F)(F)F)c2)cc1-c1cnc2c(c1)N1CCOC[C@H]1[C@](C)(C#N)C2` [Example 377, N-(3-((4aR,5R)-5-cyano-5-methyl-1,2,4,4a,5,6-hexahydro-[1,4]oxazino[4,3-a][1,5]naphthyridin-9-yl)-4-methylphenyl)-2-(trifluoromethyl)isonicotinamide], for which inhibition was half-maximal at 0.9 nM (IC50).
The same measure for `Cc1ccc(NC(=O)c2ccnc(C(F)(F)F)c2)cc1-c1cnc2c(c1)N1CCOC[C@@H]1[C@@](C)(C#N)C2` [Example 378, N-(3-((4aS,5S)-5-cyano-5-methyl-1,2,4,4a,5,6-hexahydro-[1,4]oxazino[4,3-a][1,5]naphthyridin-9-yl)-4-methylphenyl)-2-(trifluoromethyl)isonicotinamide]: 0.2 nM; for `Cc1ccc(NC(=O)c2ccnc(C(F)(F)F)c2F)cc1-c1ccc2c(c1)N1CCOC[C@H]1[C@](F)(CO)C2` [Example 380, 3-fluoro-N-(3-((4aS,5S)-5-fluoro-5-(hydroxymethyl)-1,2,4,4a,5,6-hexahydro-[1,4)oxazino[4,3-a]quinolin-9-yl)-4-methylphenyl)-2-(trifluoromethyl)isonicotinamide]: 0.4 nM.
The same measure for `Cc1ccc(NC(=O)c2ccnc(C(F)(F)F)c2)cc1-c1ccc2c(c1)N1CCOC[C@H]1[C@](F)(CO)C2` [Example 381, N-(3-((4aS,5S)-5-fluoro-5-(hydroxymethyl)-1,2,4,4a,5,6-hexahydro-[1,4]oxazino[4,3-a]quinolin-9-yl)-4-methylphenyl)-2-(trifluoromethyl)isonicotinamide]: 0.3 nM.
